Results on four compounds are retold here after patent publication US20110039809A1 (priority 2008, published 2011).

The conditions of data set [1]: cited from earlier work.
The nature of data set [2]: Clinical trial: plasma 25-OH D after single oral bolus (pharmacokinetics). As to conditions: single oral dose 140 μg of each active. How it is done:
Subjects were randomly assigned to one of […] treatment groups (i.e., daily, weekly, bolus as single dose, and bolus as combination dose). Each group included five subjects. They are followed for four months in Zürich, Switzerland during the winter.
Equimolar quantities of both substances were investigated. The regimen was based on 20 μg/day (or its equivalent on a weekly basis) of 25-OH D3.
Each dosage was consumed orally at breakfast. The duration of the study was four months for the “Daily” and “Weekly” groups. Subjects enrolled in the “Bolus” group consumed orally a single dosage at the second study visit.
Plasma concentrations of 25-OH D3 (e.g., peak and steady state) were determined by obtaining samples from the subjects at various times after the dosage was ingested. […] The assessments continued on Monday of Weeks 3, 5, 7, 9, 11, 13 and 15.

The next data set concerns deoxypyridinoline (DPD). Nature of the data set: Clinical trial: bone resorption marker deoxypyridinoline (DPD), urine marker. Format: in vivo, human. As to conditions: for DPD, GLM least square mean after 4 months: daily 20 μg or weekly 140 μg oral, adjusted for baseline, age, body mass index, postmenopausal women. From the text:
(§1) Each group included five subjects.
(§2) Equimolar quantities of both substances were investigated.
(§3) Each dosage was consumed orally at breakfast.
(§4) Treatment duration was 4 months.

Data set [3] deals with bone-specific alkaline phosphatase (BAP). As to the kind of experiment: Clinical trial: bone-specific alkaline phosphatase (BAP), serum marker. Format: in vivo, human. As to conditions: for BAP, GLM least square mean after 4 months: daily 20 μg or weekly 140 μg oral, adjusted for baseline, age, body mass index, postmenopausal women.
Source text: as §1, §2, §3, §4

The mark [4] stands for this setting: daily 20 μg or weekly 140 μg, 4 months, repeated measurement analysis over 13 visits.
Where [5] appears, read: daily or weekly treatment, identical dosages, 4 months.

With 25-hydroxyvitamin D, the “Blood concentration above which hypercalcemia may occur” value in data set [1] (in vivo) was “greater than 375 nmol/L”.
For the compound `C=C1CC[C@H](O)C/C1=C/C=C1\CCC[C@]2(C)[C@@H]([C@H](C)CCCC(C)(C)O)CC[C@@H]12` [25-OH D3, 25-hydroxyvitamin D3], the “Time span with increase in plasma 25-OH D levels by at least 30 nmol/L” value in data set [2] was 4 to 49 h. For the same compound, the “DPD, GLM least square mean after 4 months” value in the data set with deoxypyridinoline (DPD) worked out at 8.2 nmol/mmol creatine. For the same compound, the “DPD change vs. Daily/weekly Vitamin D3” value in the data set on deoxypyridinoline (DPD) (setting [4]) is given as −17.0%. Moreover, the “Reduction of DPD versus Vitamin D3” value in the data set with deoxypyridinoline (DPD) (setting [5]) was found to be 17.0%. In data set [3], the “BAP, GLM least square mean after 4 months” value is reported as 74.7 IU/L. For the same compound, in data set [3] (setting [4]), the “BAP change vs. Daily/weekly Vitamin D3” value is given as −2.4%. Moreover, the “Reduction of BAP versus Vitamin D3” value in data set [3] (setting [5]) amounted to 2.4%.
Take `C=C1CC[C@H](O)C/C1=C/C=C1\CCC[C@]2(C)[C@@H]([C@H](C)CCCC(C)C)CC[C@@H]12` [Vitamin D3, cholecalciferol]: the “Time span with increase in plasma 25-OH D levels by at least 30 nmol/L” value in data set [2] is listed as “no increase of that magnitude was observed”. Further, in the data set on deoxypyridinoline (DPD), the “DPD, GLM least square mean after 4 months” value was 9.8 nmol/mmol creatine. Also, the “BAP, GLM least square mean after 4 months” value in data set [3] is recorded as 76.5 IU/L.
Vitamin D: the “Blood concentration of 25-hydroxyvitamin D after ingestion of the safe upper level as dietary supplement” value in data set [1] (250 μg/day vitamin D) is “about 200 nmol/L”.
